Results on 3 compounds are retold here after patent US6716818B2, “Caspase inhibitors and the use thereof” (Cytovia, Inc., priority 1999, dated 2004).

cmk = not defined here

For one assay, the target named is T1, rCaspase 3 (Homo sapiens, UniProt P42574).
T1 construct: purchased PharMingen, a Becton division company, San Diego, Calif
T1 sequence (P42574 29-175 limits assumed): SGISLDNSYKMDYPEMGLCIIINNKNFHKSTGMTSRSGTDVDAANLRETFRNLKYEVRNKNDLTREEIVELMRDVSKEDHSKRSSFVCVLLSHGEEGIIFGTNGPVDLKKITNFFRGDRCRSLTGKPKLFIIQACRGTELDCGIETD
The assay can be described thus: fluorometric caspase-3 enzyme assay (Ac-DEVD-AMC substrate). The format is biochemical. The conditions noted are these: 2 ng rCaspase 3, 10 μM Ac-DEVD-AMC, 37° C., 30 minutes. On the procedure: Enzyme activity was measured using synthetic peptide substrates attached to a fluorogenic leaving group. Cleavage of the synthetic substrate by the enzyme results in a fluorescent signal which is read in a spectrofluorometer or in a fluorometric microtiter plate reader.
12 concentrations of the testing compound ranged from 30 μM to […] were tested in the enzyme assay. The enzyme reaction was conducted in the presence of 2 ng rCaspase 3 (purchased from PharMingen, a Becton division company, San Diego, Calif.), various concentrations of testing compound, 10 μM caspase 3 substrate Ac-DEVD-AMC (SEQ ID NO:3) (purchased from Quality Controlled Biochemicals, Inc. Hopkinton, Mass.) and caspase buffer (20 mM PIPES, 100 mM NaCl, 10 mM DTT, 1 mM EDTA, 0.1% CHAPS and 10% sucrose, pH 7.2) in a total volume of 100 μl. The enzyme reaction was carried out in a 96-well plate and incubated at 37° C. for 30 minutes. The plate was then read with a fluorescence plate reader (EG&G WALLAG 1420-002) using excitation filter at 355 nm/emission filter at 460 nm. The data was analyzed using GraphPrism software.

For assay [1], the system named is dopaminergic neurons grafted to hemiparkinsonian rats. The conditions noted are these: cited from earlier work.
Setting [2] is: treatment of the embryonic nigral cell suspension.

Consider `CC(C)C(NC(=O)OCC1CCCCC1)C(=O)NC(CC(=O)O)C(=O)CF` (stereo not drawn) [Cyclohexylmethoxycarbonyl-Val-Asp-fmk], for which the half-maximal inhibitory concentration (IC50) at rCaspase 3 was found to be 72 nM. `CCOC(=O)NC(C(=O)NC(CC(=O)O)C(=O)CF)C(C)C` (stereo not drawn) [Ethoxycarbonyl-Val-Asp-fmk] yielded an IC50 against rCaspase 3 of 58 nM. Regarding “Ac-YVAD-cmk (reading uncertain; also: printed as Ac-YVAD-cmk)”, the functional recovery entry in assay [1] (hemiparkinsonian rats) was “substantially improved functional recovery”. In addition, in assay [1] (setting [2]), the “DNA fragmentation and apoptosis in transplants” value was “mitigated DNA fragmentation and reduced apoptosis in transplants”; the “survival of dopaminergic neurons grafted to hemiparkinsonian rats” value is given as “increased survival of dopaminergic neurons”.

The term IC50 denotes the concentration at which inhibition is half-maximal. Read a high IC50 as lower potency.
